Source: patent US20130253022A1 (FOX CHASE CHEMICAL DIVERSITY CENTER, INC., priority 2010, published 2013)

Columns and labels:
Hippocampal Cultures [1] = assay: Neuroprotection from glutamate excitotoxicity, CFDA (neuronal viability) assay; assay type: cell-based; conditions: Rattus norvegicus; 30 μM glutamate 5 min, hippocampal cultures, 4 hour test period; read-out: NP from Glutamate CFDA EC50
Description: (§1) Cell cultures: All compounds are screened with dissociated hippocampal cultures derived from embryonic day 18 rats as the primary test system. With this preparation, primary neurons are used to test for toxicity as well as neuroprotection in a highly relevant experimental system to epilepsy. In brief, hippocampal tissue are obtained commercially through Brain Bits (Springfield, Ill.) and cultures prepared as previously described by Brewer (Brewer, G. J. Serum-free B27/neurobasal medium supports differentiated growth of neurons from the striatum, substantia nigra, septum, cerebral cortex, cerebellum and dentate gyms, J. Neurosci. Res. 1995, 42, 674-683). The hippocampal neurons are platted at low density (10,000 cell/well) in a 96-well format and maintained in serum-free medium consisting of Neurobasal Medium supplemented with B27 and GlutaMAX (Gibco). Pre-coated poly-L-lysine coated plates are used because of the preferential adherence and survival of hippocampal neurons on this matrix support.
(§2) Potent neuroprotection is the distinguishing characteristic that separates this program's anticonvulsants from all other commercial drugs for epilepsy. The experimental details and the rationale for the implemented assays are essential in differentiating these compounds from that of others. The central objective of all neuroprotective assays was their relevancy to excitotoxicity and oxidative stress related to epilepsy. Both the amount of glutamate and hydrogen peroxide used in the assays, as well as the time of treatment and duration of the experiment, were designed to be relevant to epilepsy. Further, all time parameters employed in these studies were empirically determined to be within the limits of reversible toxic events, yet using amounts of glutamate and hydrogen peroxide that were relevant to the disease. In regard to glutamate toxicity, a critical feature was the duration of treatment of the hippocampal neurons. The rational for using a short 5 min treatment with glutamate was based on the observation of Randall and Thayer (Randall, R. D.; Thayer, S. A. Glutamate-induced calcium transient triggers calcium overload and neurotoxicity in rat hippocampal neurons, J. Neurosci. 1992, 12, 1882-1895). […] The rationale is that this intense burst of glutamate and resulting calcium overload is relevant to seizures and therefore was important data to capture in the screening assay. The amount of glutamate (30 μM) employed in our screening was based on the basal levels of glutamate observed in microdialysis measurements of hippocampus from epileptogenic patients (Cavus et al. Decreased hippocampal volume on MRI is associated with increased extracellular glutamate in epilepsy patients, Epilepsia, 2008, 49, 1358-1366). In regard to hydrogen peroxide, the amount employed (10 μM) was detected in the hippocampus of rats after kainate-induced status epilepticus (Jarrett et. al., Mitochondrial DNA damage and impaired base excision repair during epileptogenesis, Neurobiol. Dis. 2008, 30, 130-138). To produce neural damage and death with these amounts of glutamate and hydrogen peroxide, the cultures were changed to a medium with significant depletion of antioxidant components in the defined medium supplement B-27 just prior to treatment with the compounds. […]

[2] = system: MES-induced seizure spread; assay: Maximal electroshock seizure (MES) test, mouse; assay type: in vivo, mice; conditions: for Duration of action MES: Mouse Maximal Electroshock (MES) test at 100 mg/kg, i.p.; for ED50: ip, mouse
Protocol: Seizure-related assays, Maximal electroshock test: The most definitive assay for anti-seizure activity is the maximal electroshock (MES) test (Swinyard, E. A. Laboratory evaluation of antiepileptic drugs: review of laboratory methods, Epilepsia, 1969, 10, 107-119). […] With both rodent assays, the duration of action is of high importance as well as the potency of the response.
Methods to measure anticonvulsant activity: All tests were conducted by the Anticonvulsant Screening Program (ASP) of the National Institute of Neurological Disease and Stroke at the National Institutes of Health.
The Maximal Electroshock Seizure (MES) or Maximal Seizure Pattern Test: The MES is a model for generalized tonic-clonic seizures (Putnam and Merritt. Experimental determination of the anticonvulsant properties of some phenyl derivatives. Science 1937, 85, 113-118). It is highly reproducible with consistent endpoints. The behavioral and electrographic seizures generated in this model are consistent with the human disorder. This model identifies those compounds which prevent seizure spread.
In the MES test, an electrical stimulus of 0.2 s in duration (50 mA in mice and 150 mA in rat at 60 Hz) is delivered via corneal electrodes primed with an electrolyte solution containing an anesthetic agent. Mice are tested at 30 minutes and 4 hours following doses of 30, 100 and 300 mg/kg of test compound. Test compounds are administered intraperitoneally to the mice. Rats are tested at time intervals between 0.25 and 4 hours following a standard oral dose of 30 mg/kg. Abolition of the hindlimb tonic extensor component indicates the test compound's ability to inhibit MES-induced seizure spread.

[3] = system: pentylenetetrazol-induced clonic seizures; assay: Subcutaneous pentylenetetrazol seizure test (scPTZ), rat; assay type: in vivo, Sprague-Dawley rats; conditions: pentylenetetrazol 70 mg/kg s.c., test compound orally, read-out: Rat PTZ ED50, s.c.
Protocol: (§3) Methods to measure anticonvulsant activity: All tests were conducted by the Anticonvulsant Screening Program (ASP) of the National Institute of Neurological Disease and Stroke at the National Institutes of Health. The subcutaneous pentylenetetrazol (metrazol) seizure test (scPTZ). This model primarily identifies compounds that raise seizure threshold. The behavioral seizure produced is not typical of absence epilepsy but clonic in nature. With some minor exceptions, the pharmacological profile of the scPTZ seizure model is consistent with the human condition. The scPTZ test utilizes a dose of pentylenetetrazol (85 mg/kg in Carworth Farms No. 1 mice and 70 mg/kg in Sprague-Dawley rats). This produces clonic seizures lasting for a period of at least five seconds in 97 percent of animals tested. At the anticipated time of testing the convulsant is administered subcutaneously. The test compound is administered intraperitoneally in mice and orally in rats. Animals are observed over a 30 minute period. Absence of clonic spasms in the observed time period indicates a compound's ability to abolish the effect of pentylenetetrazol on seizure threshold (Swinyard E A. Laboratory evaluation of antiepileptic drugs: review of laboratory methods. Epilepsia, 1969, 10, 107-119).

[4] = system: pentylenetetrazol-induced clonic seizures; assay: Subcutaneous pentylenetetrazol seizure test (scPTZ), mouse; assay type: in vivo, Carworth Farms No. 1 mice; conditions: pentylenetetrazol 85 mg/kg s.c., test compound intraperitoneally, read-out: Mouse PTZ ED50, s.c.
Protocol: as §3

Hippocampal Cultures [5] = assay: Neuroprotection from hydrogen peroxide (oxidative stress), propidium iodide assay; assay type: cell-based; conditions: Rattus norvegicus; 10 μM hydrogen peroxide, hippocampal cultures, 4 hour test period; read-out: NP from Hydrogen Peroxide PI EC50
Description: as §1
as §2, with “compounds. This was performed to obtain a significant and reproducible toxic signal in the hippocampal neurons and because loss of antioxidant control may be a component of epileptogenesis (Waldbaum and Patel, Mitochondria, oxidative stress and temporal lobe epilepsy, Epilepsy Res. 2010 88, 23-45; Wu et al., Mitochondrial DNA mutation-elicited oxidative stress, oxidative damage, and altered gene expression in cultured cells of patients with MERRF syndrome, Mol. Neurobiol. 2010, 41, 256-266). Neuroprotection studies with hydrogen peroxide were conducted with cultures that were between day 12 and day 18. Studies of neuroprotection glutamate were conducted between day 19 and day 22.” for “compounds.”

Q: What does the source list for NS(=O)(=O)NCC(F)(F)c1ccccc1F [Example 1, 2,2-Difluoro-2-(2-fluorophenyl)-ethyl-1-sulfamide]?
A: EC50 (Hippocampal Cultures [1]): 1 nM; Duration of action MES [2]: 4 h; ED50 [2]: 50 mg/kg; ED50 [3]: 107 mg/kg; ED50 [4]: 108 mg/kg; EC50 (Hippocampal Cultures [5]): 1 nM

Q: Which EC50 (Hippocampal Cultures [1]) does the source give for NS(=O)(=O)NCC(F)(F)c1ccccc1Cl [Example 2, 2,2-Difluoro-2-(2-chlorophenyl)-ethyl-1-sulfamide] here?
A: 10 nM

Q: And the “Duration of action MES” value [2]?
A: 4 h

Q: And the ED50 [2]?
A: 54 mg/kg

Q: What about the ED50 [3] of the same compound?
A: 48 mg/kg

Q: And the ED50 [4]?
A: 98 mg/kg

Q: What about the EC50 (Hippocampal Cultures [5]) of the same compound?
A: 0.1 nM
